# Where a name gives a salt, the structure may show the parent alone.
# System: not given
# Experiment: not given
# Settings: not given
row,Compound,melting point
1,"OC[C@H]1CCCN1c1cc(N2CCc3ccccc3C2)c2ccccc2n1 [Example 5, (R)-{1-[4-(3,4-Dihydro-1H-isoquinolin-2-yl)-quinolin-2-yl]-pyrrolidin-2-yl}-methanol]",74 to 80 °C
2,"Cl.O[C@@H]1CCN(c2cc(N3CCc4ccccc4C3)c3ccccc3n2)C1 [Example 4, (R)-1-[4-(3,4-Dihydro-1H-isoquinolin-2-yl)-quinolin-2-yl]-pyrrolidin-3-ol hydrochloride]",270 to 274 °C
3,Cl.c1ccc2c(c1)CCN(c1ccnc3ccccc13)C2,200 °C
4,Cl.Clc1ccc2c(c1)CN(c1ccnc3ccccc13)C2,270 to 275 °C
5,COc1cccc2c(N3CCc4ccccc4C3)ccnc12.Cl,240 °C
6,Cc1cc(N2CCc3ccccc3C2)c2ccccc2n1.Cl,210 to 211 °C
7,Cl.c1ccc2c(c1)CN(c1ccnc3ccccc13)C2,264 to 267 °C
8,"Cc1ccc2c(N3CCc4ccccc4C3)ccnc2c1.Cl [Example 13, 4-(3,4-Dihydro-1H-isoquinolin-2-yl)-7-methyl-quinoline hydrochloride]",251 to 252 °C

# Molecular target: T1, NMDA receptor (Rattus norvegicus, UniProt P35439+Q00960)
# T1 construct: Membranes were prepared by homogenization of the whole brain minus cerebellum and medulla oblongata; from tissue; host or cells: rat whole brain minus cerebellum and medulla oblongata, membranes
# Experiment: 3H-[R-(R*,S*)]-a-(4-Hydroxy-phenyl)-b-methyl-4-(phenyl-methyl)-1-piperidine propanol binding (displacement, rat brain membranes)
# Settings: displacement of 5 nM 3H-radioligand, rat whole brain membranes minus cerebellum and medulla oblongata, 2 hours at 4° C.
# Description: ^3H-[R-(R*,S*)]-a-(4-Hydroxy-phenyl)-b-methyl-4-(phenyl-methyl)-1-piperidine propanol binding
# Male Füllinsdorf albino rats weighing between 150-200 g were used. Membranes were prepared by homogenization of the whole brain minus cerebellum and medulla oblongata with a Polytron (10.000 rpm, 30 seconds), in 25 volume of a cold Tris-HCl 50 mM, EDTA 10 mM, pH 7.1 buffer. The homogenate was centrifuged at 48,000 g for 10 minutes at 4° C. The pellet was resuspended using the Polytron in the same volume of buffer and the homogenate was incubated at 37° C. for 10 minutes. After centrifugation the pellet was homogenized in the same buffer and frozen at −80° C. for at least 16 hours but not more than 10 days. For the binding assay the homogenate was thawed at 37° C., centrifuged and the pellet was washed three times as above in a Tris-HCl 5 mM, pH 7.5 cold buffer. The final pellet was resuspended in the same buffer and used at a final concentration of […] of protein/ml.
# [R-(R*,S*)]-α-(4-Hydroxy-phenyl)-β-methyl-4-(phenyl-methyl)-1-piperidine propanol is a compound known to bind selectively to the NMDA receptor (J. Neurochem., Vol. 70., No. 5, 1998). ^3H-[R-(R*,S*)]-α-(4-Hydroxy-phenyl)-β-methyl-4-(phenyl-methyl)-1-piperidine propanol binding experiments were performed using a Tris-HCl 50 mM, pH 7.4 buffer. For displacement experiments 5 nM of 3H-[R-(R*,S*)]-a-(4-Hydroxy-phenyl)-b-methyl-4-(phenyl-methyl)-1-piperidine propanol were used and non specific binding was measured using 10 mM of tetrahydroisoquinoline and usually it accounts for 10% of the total. The incubation time was 2 hours at 4° C. and the assay was stopped by filtration on Whatmann GF/B glass fiber filters (Unifilter-96, Packard, Zürich, Switzerland). The filters were washed 5 times with cold buffer. The radioactivity on the filter was counted on a Packard Top-count microplate scintillation counter after addition of […] of microscint 40 (Canberra Packard S.A., Zürich, Switzerland).
# The effects of compounds were measured using a minimum of 8 concentrations and repeated at least once. The pooled normalized values were analyzed using a non-linear regression calculation program which provide IC50 with their relative upper and lower 95% confidence limits.
# T1 sequence (Q00960 27-1482, other chains not shown): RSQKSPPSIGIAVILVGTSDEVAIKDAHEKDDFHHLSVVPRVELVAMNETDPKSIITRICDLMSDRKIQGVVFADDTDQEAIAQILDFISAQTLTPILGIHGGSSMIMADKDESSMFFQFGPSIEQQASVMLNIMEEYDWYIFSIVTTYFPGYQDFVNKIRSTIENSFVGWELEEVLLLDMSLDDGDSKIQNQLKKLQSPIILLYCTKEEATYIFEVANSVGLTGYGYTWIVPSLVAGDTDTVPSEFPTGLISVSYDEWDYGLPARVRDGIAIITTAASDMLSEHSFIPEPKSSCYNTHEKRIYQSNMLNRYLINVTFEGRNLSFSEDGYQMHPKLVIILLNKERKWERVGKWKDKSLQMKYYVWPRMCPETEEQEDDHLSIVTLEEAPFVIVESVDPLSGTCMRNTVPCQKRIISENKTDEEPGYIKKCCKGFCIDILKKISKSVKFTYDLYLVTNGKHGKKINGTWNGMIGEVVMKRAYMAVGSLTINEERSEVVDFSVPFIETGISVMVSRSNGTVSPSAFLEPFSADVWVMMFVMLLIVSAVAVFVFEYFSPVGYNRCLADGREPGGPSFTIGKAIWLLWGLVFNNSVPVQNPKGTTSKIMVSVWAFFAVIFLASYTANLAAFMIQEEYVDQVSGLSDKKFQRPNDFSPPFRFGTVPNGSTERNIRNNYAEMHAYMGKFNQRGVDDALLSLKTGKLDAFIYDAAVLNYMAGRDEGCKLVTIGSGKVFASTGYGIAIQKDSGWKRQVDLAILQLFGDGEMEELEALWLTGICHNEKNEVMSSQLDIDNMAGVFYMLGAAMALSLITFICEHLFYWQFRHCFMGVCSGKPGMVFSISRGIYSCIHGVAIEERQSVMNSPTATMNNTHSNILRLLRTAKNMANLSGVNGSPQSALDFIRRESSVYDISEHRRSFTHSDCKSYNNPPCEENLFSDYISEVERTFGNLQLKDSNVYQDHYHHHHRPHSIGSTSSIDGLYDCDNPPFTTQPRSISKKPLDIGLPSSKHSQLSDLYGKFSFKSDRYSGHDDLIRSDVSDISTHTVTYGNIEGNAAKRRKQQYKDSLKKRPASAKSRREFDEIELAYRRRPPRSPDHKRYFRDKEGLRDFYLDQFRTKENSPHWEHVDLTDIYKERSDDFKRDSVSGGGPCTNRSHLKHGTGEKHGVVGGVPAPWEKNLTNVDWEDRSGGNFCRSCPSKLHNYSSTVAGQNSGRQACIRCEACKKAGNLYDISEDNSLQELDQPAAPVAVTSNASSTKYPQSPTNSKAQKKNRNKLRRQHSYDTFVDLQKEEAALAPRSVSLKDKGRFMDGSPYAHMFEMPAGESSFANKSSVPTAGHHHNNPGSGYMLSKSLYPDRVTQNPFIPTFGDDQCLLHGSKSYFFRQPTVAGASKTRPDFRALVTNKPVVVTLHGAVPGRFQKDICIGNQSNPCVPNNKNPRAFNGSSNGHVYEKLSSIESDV
row,Compound,IC50
1,"Fc1cccc2c(N3CCc4ccccc4C3)ccnc12 [Example 16, 4-(3,4-Dihydro-1H-isoquinolin-2-yl)-8-fluoro-quinoline hydrochloride]",650 nM
2,"Clc1ccc2c(N3CCc4ccccc4C3)ccnc2c1 [Example 15, 7-Chloro-4-(3,4-dihydro-1H-isoquinolin-2-yl)-quinoline hydrochloride]",320 nM
3,"OC[C@H]1CCCN1c1cc(N2CCc3ccccc3C2)c2ccccc2n1 [Example 5, (R)-{1-[4-(3,4-Dihydro-1H-isoquinolin-2-yl)-quinolin-2-yl]-pyrrolidin-2-yl}-methanol]",290 nM
4,"Cl.O[C@@H]1CCN(c2cc(N3CCc4ccccc4C3)c3ccccc3n2)C1 [Example 4, (R)-1-[4-(3,4-Dihydro-1H-isoquinolin-2-yl)-quinolin-2-yl]-pyrrolidin-3-ol hydrochloride]",170 nM
5,"OCCNc1cc(N2CCc3ccccc3C2)c2ccccc2n1 [Example 2, 2-[4-(3,4-Dihydro-1H-isoquinolin-2-yl)-quinolin-2-ylamino]-ethanol hydrochloride]",58 nM
6,"Fc1ccc2nccc(N3CCc4ccccc4C3)c2c1 [Example 18, 4-(3,4-Dihydro-1H-isoquinolin-2-yl)-6-fluoro-quinoline hydrochloride]",890 nM
7,"Cc1ccc2c(N3CCc4ccccc4C3)ccnc2c1.Cl [Example 13, 4-(3,4-Dihydro-1H-isoquinolin-2-yl)-7-methyl-quinoline hydrochloride]",190 nM

# Source: patent US6339093B1, “Isoquinoline derivatives” (Hoffmann-la Roche Inc., priority 1999, dated 2002)
